Data set [1] in a line: Metabolic stability compared to previously prepared analogs. The data set is classed as in vitro ADME. To be noted: compared to other previously prepared analogs; attributed to amine linkage binding anthranilic acid to the terpenoid chain. The source says: As exemplified in the reaction scheme below, Fischer esterification of commercial anthranilic acid provides the corresponding amino ester 54. Reductive amination of amine 54 with aldehyde 55, derived from SeO2 oxidation of geranyl acetate and subsequent MnO2 oxidation, gave the desired amine 56 and subsequent cleavage of the acetate gave the farnesol analog 57.

A short description of data set [2]: Fluorescence of the compound. The class given is physicochemical. The source says: Compound 58 can be used in enzyme experiments with FPTase and Ras in order to obtain standard Ras proteins labeled with the fluorescent isoprenoid analog. Similarly compound 62 can be used with GGPTase I or II and proteins such as Rho B to obtain other protein standards. Protein standards obtained from in vitro experiments can then be used to analyze cell lysates for the formation of analogous proteins through in vivo experiments. Compound 58 ^1H NMR(D2O) δ7.6 (1H), 7.2 (1H), 6.4 (2H), 5.4 (1H), 5.2 (1H), 4.4 (2H), 3.6 (3H), 3.4 (2H), 2.0 (2H), 1.8 (2H), 1.6 (3H), 1.4 (3H); and ^31P NMR −6.9 (d, 1P) −9.75 (d, 1P).

A further data set deals with cell membranes. The experiment in a line: Penetration of cell membranes to afford fluorescent cells. The class given is cell-based. The following applies: affords fluorescent cells.

The structures appear in SMILES notation.

In the case of `COC(=O)c1ccccc1NC/C(C)=C/CC/C(C)=C/CO` [Compound 57], the metabolic stability entry in data set [1] was “much greater degree of metabolic stability”. The fluorescence entry in data set [2] is “highly fluorescent”. In addition, the “penetration of cell membranes” value in the data set on cell membranes was “readily penetrates cell membranes”.

For the origin of these results see patent US6727234B2, “Isoprenoid analog compounds and methods of making and use thereof” (University of Iowa Research Foundation, priority 2001, dated 2004).
